Results reported in article PMC5133702, “Liver-specific ATP-citrate lyase inhibition by bempedoic acid decreases LDL-C and attenuates atherosclerosis” (Nature Communications, 2016).

Molecular target: T1, ATP-citrate lyase (ACL) (Homo sapiens, UniProt P53396)
T1 construct: gene ACLY; recombinant human ACL
T1 sequence (P53396 1-1101): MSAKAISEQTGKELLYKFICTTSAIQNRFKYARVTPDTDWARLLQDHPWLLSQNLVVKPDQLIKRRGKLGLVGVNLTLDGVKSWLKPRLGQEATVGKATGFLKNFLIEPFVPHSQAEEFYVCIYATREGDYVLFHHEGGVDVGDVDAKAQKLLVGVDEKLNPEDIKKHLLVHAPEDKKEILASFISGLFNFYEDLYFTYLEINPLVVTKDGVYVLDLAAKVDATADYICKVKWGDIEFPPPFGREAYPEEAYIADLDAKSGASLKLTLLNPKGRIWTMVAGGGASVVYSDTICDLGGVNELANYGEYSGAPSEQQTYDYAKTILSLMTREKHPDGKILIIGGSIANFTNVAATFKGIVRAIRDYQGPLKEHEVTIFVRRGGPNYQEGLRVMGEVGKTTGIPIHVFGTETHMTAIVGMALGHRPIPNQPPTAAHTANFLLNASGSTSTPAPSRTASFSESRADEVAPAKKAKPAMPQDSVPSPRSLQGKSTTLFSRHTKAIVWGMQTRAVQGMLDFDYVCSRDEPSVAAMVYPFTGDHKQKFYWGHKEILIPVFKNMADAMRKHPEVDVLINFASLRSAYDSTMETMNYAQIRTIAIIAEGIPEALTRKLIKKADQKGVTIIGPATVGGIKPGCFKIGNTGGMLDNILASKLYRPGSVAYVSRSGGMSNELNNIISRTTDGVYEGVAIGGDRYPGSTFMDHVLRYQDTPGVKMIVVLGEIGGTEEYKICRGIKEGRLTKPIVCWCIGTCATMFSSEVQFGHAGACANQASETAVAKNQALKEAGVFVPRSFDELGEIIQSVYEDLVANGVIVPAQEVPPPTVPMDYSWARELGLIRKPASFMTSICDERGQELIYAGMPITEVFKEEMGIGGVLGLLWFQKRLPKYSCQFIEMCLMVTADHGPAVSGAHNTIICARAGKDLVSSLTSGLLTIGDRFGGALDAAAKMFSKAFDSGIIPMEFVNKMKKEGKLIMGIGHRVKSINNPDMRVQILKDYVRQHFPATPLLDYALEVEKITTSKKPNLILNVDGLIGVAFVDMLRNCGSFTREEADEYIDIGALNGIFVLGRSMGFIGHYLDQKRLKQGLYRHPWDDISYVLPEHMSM
Experiment: cell-free radiometric assay, […]-citrate to […]-acetyl-CoA, enzyme kinetics
Type: biochemical

- Ki: 2000 nM
Structure (SMILES): CC(C)(CCCCCC(O)CCCCCC(C)(C)C(=O)SCCNC(=O)CCNC(=O)[C@H](O)C(C)(C)COP(=O)(O)OP(=O)(O)OC[C@H]1O[C@@H](n2cnc3c(N)ncnc32)[C@H](O)[C@@H]1OP(=O)(O)O)C(=O)O (stereo partly shown) [ETC-1002-CoA]
